Measured values: ChEMBL document CHEMBL5532741, “Novel 2,4-Dichloro-5-sulfamoylbenzoic Acid Oxime Esters: First Studies as Potential Human Carbonic Anhydrase Inhibitors” (ACS Med Chem Lett, 2024)
pIC50: −log10 of the molar value. Calls of active or inactive are those of the source. No cut-off for these calls is given here.

How the values were obtained:
MDA-MB-231 [1] = assay: Antiproliferative activity against human MDA-MB-231 cells measured after 72 hrs by cell counting kit 8 method; type: functional, cell-based; settings: MDA-MB-231, 72 h
Homo sapiens [2] = species on record: Homo sapiens; assay: Selectivity index, ratio of Ki for recombinant human CA9 to Ki for recombinant human CA2
Homo sapiens [3] = species on record: Homo sapiens; assay: Selectivity index, ratio of Ki for recombinant human CA12 to Ki for recombinant human CA2
MDA-MB-231 [4] = assay: Antiproliferative activity against human MDA-MB-231 cells at high concentration measured after 72 hrs by cell counting kit 8 method; type: functional, cell-based

Row | SMILES | pIC50 (MDA-MB-231 [1]) | further results
1 | NS(=O)(=O)c1ccc(NC(=O)Nc2ccc(F)cc2)cc1 [SLC-0111] | 4.74 | –
2 | NS(=O)(=O)c1cc(C(=O)O)c(Cl)cc1Cl | – | Ratio Ki (Homo sapiens [2]): 7.9; Ratio Ki (Homo sapiens [3]): 22.7
3 | COc1cccc(OC)c1/C=N/OC(=O)c1cc(S(N)(=O)=O)c(Cl)cc1Cl | 3.96 | –
4 | COc1ccc(/C=N/OC(=O)c2cc(S(N)(=O)=O)c(Cl)cc2Cl)c(OC)c1OC | 3.95 | –
5 | NS(=O)(=O)c1cc(C(=O)O/N=C/c2ccccc2)c(Cl)cc1Cl | – | Activity (MDA-MB-231 [4]): inactive
